Earlier results on one compound are cited in US20220218650A1, “COMPOSITION AND METHOD FOR TREATING PAIN” (Zelira Therapeutics Operations Pty Ltd, priority 2018, published 2022).

The conditions of this data set: treatment group (5 mg THC); control group 74 mg; difference not statistically significant (n=105).

Turning to `CCCCCc1cc(O)c2c(c1)OC(C)(C)[C@@H]1CCC(C)=C[C@@H]21` [dronabinol], the “Median dose of micro-opioid agonist piritramide in the two days post surgery” value was 54 mg.
